Measured values: patent US20260306633A1, “A COMBINATION THERAPY FOR CANCER TREATMENT” (Purdue Research Foundation, priority 2023, published 2026)
Like-named read-outs stand apart in the source and are kept apart here.

Key:
TNBC BT-549 cells = assay: Cell survival / cell inhibition (MTT cell cytotoxicity assay) after 24 h treatment with photosensitizer and/or chemotherapeutic agent, dark or light-irradiated; assay type: cell-based, human; conditions: for cell inhibition (%), combination with cisplatin / cell inhibition (%), combination with doxorubicin / cell inhibition (%), combination with fluorouracil / cell inhibition (%), combination with methotrexate / cell inhibition (%), combination with paclitaxel: light 0.96 J cm−2; for cell inhibition (%), combination with doxorubicin: PS 100 nM + doxorubicin 500 nM; for cell inhibition (%), combination with methotrexate: PS 100 nM + methotrexate 500 nM; for cytotoxicity in the absence of light, PS alone: PS 500 nM; for viability at 0.01 µM: low end of 10-100 nM (so in the source); for viability at 1 µM: high end of 100-1000 nM
Experimental: Human mammary epithelial carcinoma cell lines purchased from the American Type Culture Collection BT-549 (ATCC HTB-122) were cultured according to ATCC protocol. BT-549 cells were grown in RPMI 1640 containing 0.023 IU/mL insulin and supplemented with 10% fetal bovine serum (FBS). Cells were grown to 80-90% confluence in 75-cm^2 culture flasks (Corning) for 4-5 days in a humidified incubator (Fisher Scientific Isotemp) with 5% CO2 at 37° C. During the incubation period, growth media was changed once with fresh pre-warmed media (pH 7.2). To harvest the cells, old growth media was aspirated out, and 3 mL 0.25% trypsin solution (Thermo Sci Hyclone) were added. The cells were incubated for 5 minutes, and the cell pellet after centrifugation was resuspended in 3 mL media, broken up gently, then 1 mL of suspended cells was transferred into a new T75 cell culture flask containing pre-warmed media (20 mL) for further culturing.
Cells were grown to confluence in a 96-well plate (9×10^3 cells/well) and co-treated for 24 hours with synthesized photosensitizers (PSs) and chemotherapeutic agents of varying concentrations ranging from 5 nM to 50 μM) in growth media from a stock solution of 10 mM in DMSO (dimethyl sulfoxide, Fisher). After 24-hour treatment, old growth media containing the PSs or compounds were aspirated out and replaced with fresh media. Plates were then positioned below a non-coherent LumaCare LC-122 650 nm light source for 1 minute at an energy fluence rate of 0.96 J/cm^2 and a power of 16 mW/cm^2 (measured using a Newport optical power meter Model 840). Unirradiated cells served as control samples. The following day, cells were washed with pre-warmed PBS, and 11MTT (3-[4,5-dimethyl-thiazol-2-yl]-2.5-diphenyltetrazolium bromide, Sigma, 0.3 mg/mL) in PBS was added to each well. Samples were allowed to incubate for additional 2 hours, after which dark blue crystals formed. DMSO was added to each well and plates were shaken at room temperature for 1 hour to dissolve the purplish-blue formazan crystals. Absorbance values at 570 nm were measured on a microplate reader (BioRad 550). Cell survival was calculated based on the absorbance of the untreated cells alone (as control) and were directly proportional to the number of viable cells in culture. Results were reported as the mean±SD of triplicate measurements.
The unmetallated PS and the indium complexes were used.
Light dose corresponds to an energy fluence rate of 0.96 J/cm^2 used.
Power of 16 mW/cm^2 used.
Cell inhibition in TNBC cells is based on the cell survival (MTT) assay of the binary therapy, blending the effect of PDT and chemotherapeutic agents. […] MePheo serves as a control compound. TNBC cells were then exposed to light after binary treatment for 24 hours.

human TNBC BT-549 cells = assay: Fluorescence microscopy (Hoechst 33258) of cell morphology / cell death pathway; assay type: cell-based; conditions: fluorouracil 25 μM, dark (FIG. 18U)
Experimental: Grayscale images of cells stained with Hoechst 33258. Morphology of (A) untreated unirradiated cells, sham control; (B) illuminated cells; (C-E) cells treated with: PSs (InCLA, CBTN, and CPA) and paclitaxel in the dark; (F-H) PSs, followed by 1 minute light exposure; (I) paclitaxel unirradiated; (J-L) PSs and paclitaxel in the dark; (M-O) PSs co-treated with paclitaxel, then light-exposed; (P-Q) PSs co-treated with doxorubicin, then irradiated; (R) PSs and cisplatin, dark; (S-T) PSs and cisplatin, irradiated; (U) fluorouracil, dark; (V) InCLA with fluorouracil in the dark; (W) light-exposed and, (X-Y) PSs with methotrexate with light. Inserts indicate enlarged view. […] Light dose in 1 minute=0.96 J cm^−2; in 30 seconds=0.48 J cm^−2. Concentrations: PSs=50 nM; paclitaxel=50 nM; doxorubicin=500 nM; cisplatin=25 μM; fluororuracil=25 μM; and, methotrexate=500 nM.
Cells (1 mL aliquots) obtained from a diluted cell suspension were seeded into each well (1.7 cm^2, 8×10^3 cells/well) of a 4-well culture slide (BD Biosciences) and grown to confluence in 5% CO2 at 37° C. for 3-4 days for attachment to the substratum. After aspirating the old growth media, 1 mL of the photosensitizer and chemotherapeutic agents (with appropriate concentrations) in fresh pre-warmed media at 37° C. was added to each well. After compound treatment for 24 hours, cells were washed twice with 1 mL fresh growth media, and then irradiated with light using LumaCare LC-122 as described above. Cells were stained in the dark with Hoechst 33258 (Molecular Probes) in pre-warmed media for 10 minutes at 37° C., washed twice with filtered PBS, then fixed with filtered paraformaldehyde for 15 minutes in the incubator. After thorough liquid aspiration, the wells were removed and allowed to air dry in the dark for 1 hour. Slides were protected with coverslips, whose edges were sealed using clear fast-drying nail polish and allowed to dry at room temperature in the dark for 30 minutes. Images were recorded using fluorescence microscopy (DAPI for Hoechst 350-390 nm excitation and 460-490 nm emission filters) using an upright fluorescence microscope with Retiga imaging 2000R (Nikon Optiphot-2, 20× and 40×) and an image processing Nikon NIS-Elements V4.0 Qimaging software.
To determine the preferred cell death pathway for the binary chemophotodynamic therapy, tracking the hallmarks of apoptosis or necrosis was accomplished using a nuclear stain to monitor chromatin condensation and cellular contraction. TNBC cells are spindle-shaped and nearly round with intact cytoplasm, diffused chromatin, distinct cellular membrane, and large oval nuclei staining dark blue with the nuclear stain (FIG. 18A-B).

[1] = PS 100 nM + cisplatin 25 μM, 24 h
[2] = PS 100 nM + fluorouracil 25 μM, 24 h
[3] = PS 100 nM + paclitaxel 50 nM, 24 h

C=Cc1c(C)c2cc3nc(c(CC(=O)OC)c4[nH]c(cc5nc(cc1[nH]2)C(C)=C5CC)c(C)c4C(=O)NCCCCCCNC(=O)c1ccc(C(=C)c2cc4c(cc2C)C(C)(C)CCC4(C)C)cc1)[C@@H](CCC(=O)OC)[C@@H]3C [CBX, chlorin bexarotene conjugate]
cell inhibition (%), combination with cisplatin (TNBC BT-549 cells; [1]): 0%
cell inhibition (%), combination with doxorubicin (TNBC BT-549 cells; 24 h): 30%
cell inhibition (%), combination with fluorouracil (TNBC BT-549 cells; [2]): 6%
cell inhibition (%), combination with methotrexate (TNBC BT-549 cells; 24 h): 42%
cell inhibition (%), combination with paclitaxel (TNBC BT-549 cells; [3]): 48%
cytotoxicity in the absence of light, PS alone (TNBC BT-549 cells; dark): No cytotoxicity

C=Cc1c(C)c2cc3nc(c(CC(=O)OC)c4[nH]c(cc5nc(cc1[nH]2)C(C)=C5CC)c(C)c4C(=O)NCCCCCCNC(=O)CCCC[C@@H]1CCSS1)[C@@H](CCC(=O)OC)[C@@H]3C [CLA, chlorin lipoic acid conjugate]
cell inhibition (%), combination with cisplatin (TNBC BT-549 cells; [1]): 65%
effect of added cisplatin compared to cisplatin-treated cell viability (TNBC BT-549 cells; PS 100 nM + cisplatin 25 μM, light): reduced cell survival
cell survival, co-treatment with cisplatin upon light (TNBC BT-549 cells; PS 100 nM + cisplatin 25 μM, light, 1440 min): 35%
cell inhibition (%), combination with doxorubicin (TNBC BT-549 cells; 24 h): 33%
cell survival, co-treatment with fluorouracil in the dark (TNBC BT-549 cells; PS 100 nM + fluorouracil 25 μM, 24 h, dark): 84%
cell inhibition (%), combination with fluorouracil (TNBC BT-549 cells; [2]): 35%
cell inhibition (%), combination with methotrexate (TNBC BT-549 cells; 24 h): 43%
cell survival, co-treatment with paclitaxel in the dark (TNBC BT-549 cells; PS 100 nM + paclitaxel 50 nM, 24 h, dark): 59%
cell inhibition (%), combination with paclitaxel (TNBC BT-549 cells; [3]): 45%
cell survival, PS alone (TNBC BT-549 cells; PS 100 nM, light 0.96 J/cm^2, 1440 min): 90%
cytotoxicity in the absence of light, PS alone (TNBC BT-549 cells; dark): No cytotoxicity
combination therapy vs monotherapy (cisplatin) (TNBC BT-549 cells; PS + cisplatin, light): better photodynamic effect when co-treated with cisplatin than PS-treatment alone

O=c1[nH]cc(F)c(=O)[nH]1 [fluorouracil, 5-Fluorouracil, reference compound]
viability at 25 µM (TNBC BT-549 cells; Homo sapiens, BT-549, 24 h, fluorouracil 25 μM, dark, read-out: cell survival, drug only): 64%
viability at 0.1 µM (TNBC BT-549 cells; Homo sapiens, BT-549, 24 h, fluorouracil, dark, high end of 10-100 nM (so in the source), read-out: cell survival, drug only (end of decrease)): 65%
viability at 0.01 µM (TNBC BT-549 cells; Homo sapiens, BT-549, 24 h, fluorouracil, dark, read-out: cell survival, drug only (start of decrease)): 87%
viability at 0.1 µM (TNBC BT-549 cells; Homo sapiens, BT-549, 24 h, fluorouracil, light, high end of 10-100 nM (so in the source), read-out: cell survival, drug only (end of decrease)): 68%
viability at 0.01 µM (TNBC BT-549 cells; Homo sapiens, BT-549, 24 h, fluorouracil, light, read-out: cell survival, drug only (start of decrease)): 85%
average decrease in cell survival upon light irradiation compared to unirradiated cells, drug only (TNBC BT-549 cells; drug alone, light vs dark): 9%
cell morphology, fluorouracil, dark (human TNBC BT-549 cells): did not affect the cellular morphology

COc1cccc2c1C(=O)c1c(O)c3c(c(O)c1C2=O)C[C@@](O)(C(=O)CO)C[C@@H]3O[C@H]1C[C@H](N)[C@H](O)[C@H](C)O1 [doxorubicin, reference compound]
viability at 0.5 µM (TNBC BT-549 cells; Homo sapiens, BT-549, 24 h, doxorubicin 500 nM, dark, read-out: cell survival, drug only): 81%
viability at 1 µM (TNBC BT-549 cells; Homo sapiens, BT-549, 24 h, doxorubicin, dark, read-out: cell survival, drug only (end of decrease)): 70%
viability at 0.1 µM (TNBC BT-549 cells; Homo sapiens, BT-549, 24 h, doxorubicin, dark, low end of 100-1000 nM, read-out: cell survival, drug only (start of decrease)): 100%
viability at 1 µM (TNBC BT-549 cells; Homo sapiens, BT-549, 24 h, doxorubicin, light, read-out: cell survival, drug only (end of decrease)): 72%
viability at 0.1 µM (TNBC BT-549 cells; Homo sapiens, BT-549, 24 h, doxorubicin, light, low end of 100-1000 nM, read-out: cell survival, drug only (start of decrease)): 95%
average decrease in cell survival upon light irradiation compared to unirradiated cells, drug only (TNBC BT-549 cells; drug alone, light vs dark): 2-5%

CN(Cc1cnc2nc(N)nc(N)c2n1)c1ccc(C(=O)N[C@@H](CCC(=O)O)C(=O)O)cc1 [methotrexate, reference compound]
viability at 0.5 µM (TNBC BT-549 cells; Homo sapiens, BT-549, 24 h, methotrexate 500 nM, dark, read-out: cell survival, drug only): 78%
viability at 1 µM (TNBC BT-549 cells; Homo sapiens, BT-549, 24 h, methotrexate, dark, read-out: cell survival, drug only (end of decrease)): 66%
viability at 0.1 µM (TNBC BT-549 cells; Homo sapiens, BT-549, 24 h, methotrexate, dark, low end of 100-1000 nM, read-out: cell survival, drug only (start of decrease)): 87%
viability at 1 µM (TNBC BT-549 cells; Homo sapiens, BT-549, 24 h, methotrexate, light, read-out: cell survival, drug only (end of decrease)): 66%
viability at 0.1 µM (TNBC BT-549 cells; Homo sapiens, BT-549, 24 h, methotrexate, light, low end of 100-1000 nM, read-out: cell survival, drug only (start of decrease)): 93%
average increase in cell survival upon light irradiation compared to unirradiated cells, drug only (TNBC BT-549 cells; drug alone, light vs dark): 6%
